Results on 24 compounds are retold here after patent publication US9611277B2 (Janssen Pharmaceutica NV, priority 2013, dated 2017).

pKi: −log10 of the molar value. Like-named read-outs stand apart in the source and are kept apart here.

The target in one assay is rat orexin 1 receptor (Rattus norvegicus, UniProt P56718). Briefly: Rat orexin 1 receptor radioligand binding. The conditions noted are these: read-out: rOX1 Ki. In outline: (§1)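 Ki values derive from one-site competition IC50s corrected with the radioligand's predetermined Kd, triplicates per run, averaged over 2-20 runs. Cell homogenates (rat or human OX1R) compete against [^3H]-thiazolyl-oxadiazolyl-pyrrolidine methanone in PBS; 10 μM almorexant sets nonspecific binding; scintillation counting after washing.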

Another assay has as its target human orexin 1 receptor (Homo sapiens, UniProt O43613). Briefly: Human orexin 1 receptor radioligand binding. The conditions noted are these: read-out: hOX1 Ki. In outline: as §1
Another assay deals with human orexin 2 receptor (Homo sapiens (Human), UniProt O43614). As to the kind of experiment: Human orexin 2 receptor radioligand binding. The conditions noted are these: read-out: hOX2 Ki. The procedure, abridged: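 Ki derived from one-site competition IC50 using predetermined Kd of [3H]-EMPA, triplicate points, 2-20 runs averaged. Binding done on homogenized HEK293 cells stably expressing human orexin 2 receptor, DMSO ≤0.1%, with 10 μM almorexant defining nonspecific binding; filtered, washed, scintillation counted.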

The mark [1] stands for this setting: rat orexin 1 receptor, averages of 2-20 runs.
Where [2] appears, read: human orexin 1 receptor, averages of 2-20 runs.
The mark [3] stands for this setting: human orexin 2 receptor, averages of 2-20 runs.

Sequence of human orexin 2 receptor (O43614 whole entry): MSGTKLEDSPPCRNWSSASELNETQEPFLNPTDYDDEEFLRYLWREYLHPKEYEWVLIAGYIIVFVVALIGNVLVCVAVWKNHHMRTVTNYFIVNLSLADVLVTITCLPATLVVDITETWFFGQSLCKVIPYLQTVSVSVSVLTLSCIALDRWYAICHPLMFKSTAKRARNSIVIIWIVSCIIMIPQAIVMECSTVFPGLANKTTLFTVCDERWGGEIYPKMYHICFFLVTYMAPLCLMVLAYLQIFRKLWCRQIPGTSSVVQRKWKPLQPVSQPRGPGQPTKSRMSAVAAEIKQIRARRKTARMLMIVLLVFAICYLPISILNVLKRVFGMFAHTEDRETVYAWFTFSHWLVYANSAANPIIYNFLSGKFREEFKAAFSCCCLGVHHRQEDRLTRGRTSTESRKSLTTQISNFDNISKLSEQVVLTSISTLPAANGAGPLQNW

On to `O=C(c1ccc(F)cc1-c1ncccn1)N1C[C@@H]2CC[C@H]1[C@H](Nc1cnc(C(F)(F)F)cn1)C2` [Example 277, (4-fluoro-2-(pyrimidin-2-yl)phenyl)((1S,4R,6R)-6-((5-(trifluoromethyl)pyrazin-2-yl)amino)-2-azabicyclo[2.2.2]octan-2-yl)methanone], for which the pKi on rat orexin 1 receptor (setting [1]) is 7.77; on human orexin 1 receptor (setting [2]), 7.82; on human orexin 2 receptor (setting [3]), 6.00.

Turning to `O=C(c1cc(F)ccc1-c1ncccn1)N1C[C@@H]2CC[C@H]1[C@H](Nc1cnc(C(F)(F)F)cn1)C2` [Example 278, (5-fluoro-2-(pyrimidin-2-yl)phenyl)((1S,4R,6R)-6-((5-(trifluoromethyl)pyrazin-2-yl)amino)-2-azabicyclo[2.2.2]octan-2-yl)methanone], the values for the pKi on rat orexin 1 receptor (setting [1]), at human orexin 1 receptor (setting [2]) and at human orexin 2 receptor (setting [3]) were 7.85, 8.15 and 6.61, respectively.

As to `O=C(c1c(F)cccc1-c1ncccn1)N1C[C@@H]2CC[C@H]1[C@H](Nc1cnc(C(F)(F)F)cn1)C2` [Example 279, (2-fluoro-6-(pyrimidin-2-yl)phenyl)((1S,4R,6R)-6-((5-(trifluoromethyl)pyrazin-2-yl)amino)-2-azabicyclo[2.2.2]octan-2-yl)methanone], the pKi on rat orexin 1 receptor (setting [1]) is 7.96; on human orexin 1 receptor (setting [2]), 7.89; on human orexin 2 receptor (setting [3]) it was 6.75.

On to `O=C(c1ccccc1-c1ncccn1)N1C[C@@H]2CC[C@H]1[C@H](Nc1cnc(C(F)(F)F)cn1)C2` [Example 280, (2-(pyrimidin-2-yl)phenyl)((1S,4R,6R)-6-((5-(trifluoromethyl)pyrazin-2-yl)amino)-2-azabicyclo[2.2.2]octan-2-yl)methanone], for which the pKi was 8.15 on rat orexin 1 receptor (setting [1]), 8.40 on human orexin 1 receptor (setting [2]) and 6.72 on human orexin 2 receptor (setting [3]).

For `O=C(c1cccc(F)c1-c1ncccn1)N1C[C@@H]2CC[C@H]1[C@H](Oc1ncc(C(F)(F)F)cc1Cl)C2` [Example 281, ((1S,4R,6R)-6-((3-chloro-5-(trifluoromethyl)pyridin-2-yl)oxy)-2-azabicyclo[2.2.2]octan-2-yl)(3-fluoro-2-(pyrimidin-2-yl)phenyl)methanone], the figures for the pKi at rat orexin 1 receptor (setting [1]), at human orexin 1 receptor (setting [2]) and at human orexin 2 receptor (setting [3]) were 8.30, 7.72 and 6.47, respectively.

`Cc1cnc(C(=O)N2C[C@@H]3CC[C@H]2[C@H](Oc2cnc(C(F)(F)F)cn2)C3)c(-c2ncccn2)c1` [Example 282, (5-methyl-3-(pyrimidin-2-yl)pyridin-2-yl)((1S,4R,6R)-6-((5-(trifluoromethyl)pyrazin-2-yl)oxy)-2-azabicyclo[2.2.2]octan-2-yl)methanone]: the pKi on rat orexin 1 receptor (setting [1]) was 7.09; at human orexin 1 receptor (setting [2]), 7.19; on human orexin 2 receptor (setting [3]), < 5.00.

Take `Cc1cnc(C(=O)N2C[C@@H]3CC[C@H]2[C@H](Oc2ncc(C(F)(F)F)cc2F)C3)c(-c2ncccn2)c1` [Example 283, ((1S,4R,6R)-6-((3-fluoro-5-(trifluoromethyl)pyridin-2-yl)oxy)-2-azabicyclo[2.2.2]octan-2-yl)(5-methyl-3-(pyrimidin-2-yl)pyridin-2-yl)methanone]: the figures for the pKi on rat orexin 1 receptor (setting [1]), at human orexin 1 receptor (setting [2]) and at human orexin 2 receptor (setting [3]) were 7.68, 7.57 and < 5.00, respectively.

Regarding `O=C(c1cccc(F)c1-c1ncccn1)N1C[C@H]2C[C@@H](Oc3ncc(Cl)cn3)[C@@H]1C2` [Example 284, ((1S,4R,6R)-6-((5-chloropyrimidin-2-yl)oxy)-2-azabicyclo[2.2.1]heptan-2-yl)(3-fluoro-2-(pyrimidin-2-yl)phenyl)methanone], the pKi is 7.35 at rat orexin 1 receptor (setting [1]), 7.33 on human orexin 1 receptor (setting [2]) and 5.25 at human orexin 2 receptor (setting [3]).

`Cc1ccc(-c2ncccn2)c(C(=O)N2C[C@H]3C[C@@H](Oc4ncc(Cl)cn4)[C@@H]2C3)n1` [Example 285, ((1S,4R,6R)-6-((5-chloropyrimidin-2-yl)oxy)-2-azabicyclo[2.2.1]heptan-2-yl)(6-methyl-3-(pyrimidin-2-yl)pyridin-2-yl)methanone]: the pKi on rat orexin 1 receptor (setting [1]) was 6.93; at human orexin 1 receptor (setting [2]), 6.67; on human orexin 2 receptor (setting [3]), 5.22.

For the compound `O=C(c1ccccc1-n1nccn1)N1C[C@H]2C[C@@H](Oc3ccc4cccnc4n3)[C@@H]1C2` [Example 287, ((1S,4R,6R)-6-((1,8-naphthyridin-2-yl)oxy)-2-azabicyclo[2.2.1]heptan-2-yl)(2-(2H-1,2,3-triazol-2-yl)phenyl)methanone], the pKi is 6.81 at rat orexin 1 receptor (setting [1]), 6.65 on human orexin 1 receptor (setting [2]) and 5.57 on human orexin 2 receptor (setting [3]).

For `Cc1cnc(C(=O)N2C[C@H]3C[C@@H](Oc4ccc(C(F)F)cn4)[C@@H]2C3)c(-c2ncccn2)c1` [Example 288, ((1S,4R,6R)-6-((5-(difluoromethyl)pyridin-2-yl)oxy)-2-azabicyclo[2.2.1]heptan-2-yl)(5-methyl-3-(pyrimidin-2-yl)pyridin-2-yl)methanone], the pKi on rat orexin 1 receptor (setting [1]) was 7.54; on human orexin 1 receptor (setting [2]) it was 7.41; on human orexin 2 receptor (setting [3]), 5.29.

Consider `Cc1cnc(-c2ncccn2)c(C(=O)N2C[C@H]3C[C@@H](Oc4ccc(C(F)(F)F)cn4)[C@@H]2C3)c1` [Example 290, (5-methyl-2-(pyrimidin-2-yl)pyridin-3-yl)((1S,4R,6R)-6-((5-(trifluoromethyl)pyridin-2-yl)oxy)-2-azabicyclo[2.2.1]heptan-2-yl)methanone], for which the negative-log Ki (pKi) at rat orexin 1 receptor (setting [1]) is 7.01; at human orexin 1 receptor (setting [2]) it was 6.73; on human orexin 2 receptor (setting [3]) it was < 5.00.

As for `Cc1noc(-c2cc(F)ccc2C(=O)N2C[C@H]3C[C@@H](Oc4ccc(C(F)(F)F)cn4)[C@@H]2C3)n1` [Example 291, (4-fluoro-2-(3-methyl-1,2,4-oxadiazol-5-yl)phenyl)((1S,4R,6R)-6-((5-(trifluoromethyl)pyridin-2-yl)oxy)-2-azabicyclo[2.2.1]heptan-2-yl)methanone], the pKi on rat orexin 1 receptor (setting [1]) was 7.37; on human orexin 1 receptor (setting [2]), 7.09; on human orexin 2 receptor (setting [3]) it was 5.38.

Take `O=C(c1c(F)cccc1-c1ncco1)N1C[C@H]2C[C@@H](Oc3ccc(C(F)(F)F)cn3)[C@@H]1C2` [Example 292, (2-fluoro-6-(oxazol-2-yl)phenyl)((1S,4R,6R)-6-((5-(trifluoromethyl)pyridin-2-yl)oxy)-2-azabicyclo[2.2.1]heptan-2-yl)methanone]: the figures for the pKi at rat orexin 1 receptor (setting [1]), on human orexin 1 receptor (setting [2]) and on human orexin 2 receptor (setting [3]) were 7.72, 7.40 and 6.17, respectively.

As to `O=C(c1cc(F)ccc1-c1ncco1)N1C[C@H]2C[C@@H](Oc3ccc(C(F)(F)F)cn3)[C@@H]1C2` [Example 293], the pKi at rat orexin 1 receptor (setting [1]) was 7.80; at human orexin 1 receptor (setting [2]), 7.59; on human orexin 2 receptor (setting [3]), 6.27.

On to `Cc1cnc(C(=O)N2C[C@H]3C[C@@H](Oc4ccc(C(F)(F)F)cn4)[C@@H]2C3)c(-n2ccnn2)c1` [Example 294], for which the pKi is 6.78 on rat orexin 1 receptor (setting [1]), 6.24 on human orexin 1 receptor (setting [2]) and 5.85 on human orexin 2 receptor (setting [3]).

`COc1ccc(C(=O)N2C[C@H]3C[C@@H](Oc4ccc(C(F)(F)F)cn4)[C@@H]2C3)c(-c2ncccn2)c1` [Example 295]: the pKi is 7.72 at rat orexin 1 receptor (setting [1]), 7.47 on human orexin 1 receptor (setting [2]) and 5.24 on human orexin 2 receptor (setting [3]).

Regarding `O=C(c1ncccc1-c1ncccn1)N1C[C@H]2C[C@@H](Oc3ccc(C(F)(F)F)cn3)[C@@H]1C2` [Example 296], the pKi at rat orexin 1 receptor (setting [1]) was 8.10; on human orexin 1 receptor (setting [2]), 7.85; at human orexin 2 receptor (setting [3]), 6.32.

Turning to `O=C(c1ccccc1-c1ncccn1)N1C[C@H]2C[C@@H](Oc3ccc(C(F)(F)F)cn3)[C@@H]1C2` [Example 297], the results for the pKi at rat orexin 1 receptor (setting [1]), on human orexin 1 receptor (setting [2]) and on human orexin 2 receptor (setting [3]) were 8.00, 8.00 and 6.22, respectively.

Regarding `Cc1cnc(C(=O)N2C[C@H]3C[C@@H](Oc4ccc(C(F)(F)F)cn4)[C@@H]2C3)c(-c2ncccn2)c1` [Example 298], the pKi at rat orexin 1 receptor (setting [1]) was 7.62; on human orexin 1 receptor (setting [2]), 7.54; on human orexin 2 receptor (setting [3]), < 5.00.

In the case of `O=C(c1ccccc1-n1nccn1)N1C[C@H]2C[C@@H](Oc3ncc(Cl)cn3)[C@@H]1C2` [Example 300], the pKi on rat orexin 1 receptor (setting [1]) is 7.04; on human orexin 1 receptor (setting [2]), 6.95; on human orexin 2 receptor (setting [3]), 5.43.

With “(3-fluoro-2-(pyrimidin-2-yl)phenyl)((1S,4R,6R)-6-((5-(trifluoromethyl)pyrazin-2-yl)amino)-2-azabicyclo[2.2.2]octan-2-yl)methanone [Example 80]”, the pKi was 8.05 at rat orexin 1 receptor (setting [1]), 8.15 on human orexin 1 receptor (setting [2]) and 6.34 at human orexin 2 receptor (setting [3]).

For the compound “((1S,4S,6R)-6-((5-chloropyrimidin-2-yl)amino)-2-azabicyclo[2.2.1]heptan-2-yl)(2-(5-fluoropyrimidin-2-yl)phenyl)methanone [Example 241]”, the pKi on rat orexin 1 receptor is 7.68; on human orexin 1 receptor it was 7.92; on human orexin 2 receptor, 6.01.

For the compound “((1S,4S,6R)-6-((5-chloropyrimidin-2-yl)amino)-2-azabicyclo[2.2.1]heptan-2-yl)(5-fluoro-2-(pyrimidin-2-yl)phenyl)methanone [Example 238]”, the results for the pKi at rat orexin 1 receptor (setting [1]), at human orexin 1 receptor (setting [2]) and at human orexin 2 receptor were 7.70, 8.10 and 6.00, respectively.

In general, pKi refers to −log10 of the Ki, conventionally taken in molar units.
